Laboratory results: ChEMBL document CHEMBL1201862, “PubChem BioAssay data set” (2004)
Calls of active or inactive are those of the source.

Tests used:
Cytochrome P450 2C9 = Cytochrome P450 2C9 (Homo sapiens, UniProt P11712)
[1] = biological target: T1, Zinc finger protein mex-5 (Caenorhabditis elegans, UniProt Q9XUB2); test: potency of MEX-5 RNA-binding blockers – biochemical, C. elegans, fluorescence polarization, dose response (AID 1960)
T1 sequence (Q9XUB2 whole entry): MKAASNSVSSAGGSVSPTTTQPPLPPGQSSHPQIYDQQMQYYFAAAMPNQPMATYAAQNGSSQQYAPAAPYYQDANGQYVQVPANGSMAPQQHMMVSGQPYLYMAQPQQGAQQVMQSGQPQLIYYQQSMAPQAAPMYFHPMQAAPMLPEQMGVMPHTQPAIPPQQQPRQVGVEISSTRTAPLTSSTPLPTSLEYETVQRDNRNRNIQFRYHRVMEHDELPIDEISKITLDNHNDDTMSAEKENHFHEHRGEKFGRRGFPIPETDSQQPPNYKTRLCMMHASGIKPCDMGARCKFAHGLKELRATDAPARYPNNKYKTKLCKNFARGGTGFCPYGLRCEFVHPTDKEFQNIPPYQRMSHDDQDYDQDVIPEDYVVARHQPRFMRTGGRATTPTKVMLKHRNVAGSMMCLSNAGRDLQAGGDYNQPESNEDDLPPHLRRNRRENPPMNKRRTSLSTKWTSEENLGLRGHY

[2] = biological target: T2, RNA-binding protein pos-1 (Caenorhabditis elegans, UniProt G5EF15); test: disruptors of C. elegans POS-1 RNA interaction – biochemical, fluorescence polarization, dose response (AID 1964);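 further: purified POS-1 fused to maltose binding protein made in E. coli; potency of compounds blocking POS-1 binding to fluorescent RNA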
T2 sequence (G5EF15 whole entry): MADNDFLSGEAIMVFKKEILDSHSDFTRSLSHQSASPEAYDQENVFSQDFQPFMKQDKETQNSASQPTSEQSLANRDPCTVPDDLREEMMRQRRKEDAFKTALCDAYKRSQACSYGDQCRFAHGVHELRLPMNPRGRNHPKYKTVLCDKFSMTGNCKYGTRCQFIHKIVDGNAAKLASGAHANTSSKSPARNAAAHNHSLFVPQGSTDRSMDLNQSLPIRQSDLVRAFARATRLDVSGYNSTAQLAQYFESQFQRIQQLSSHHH

[3] = biological target: T3, Heat shock factor protein 1 (Mus musculus, UniProt P38532); test: decrease of HSF1-responsive luciferase luminescence – cell-based, NIH3T3, dose retest, confirmation (AID 2382); type: functional;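 further: NIH3T3 fibroblasts with HSF1-driven luciferase reporter stressed by proteasome inhibitor MG132; luminescence from HSF1-driven luciferase expression after 8 hours of MG132 stress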
T3 sequence (P38532 whole entry): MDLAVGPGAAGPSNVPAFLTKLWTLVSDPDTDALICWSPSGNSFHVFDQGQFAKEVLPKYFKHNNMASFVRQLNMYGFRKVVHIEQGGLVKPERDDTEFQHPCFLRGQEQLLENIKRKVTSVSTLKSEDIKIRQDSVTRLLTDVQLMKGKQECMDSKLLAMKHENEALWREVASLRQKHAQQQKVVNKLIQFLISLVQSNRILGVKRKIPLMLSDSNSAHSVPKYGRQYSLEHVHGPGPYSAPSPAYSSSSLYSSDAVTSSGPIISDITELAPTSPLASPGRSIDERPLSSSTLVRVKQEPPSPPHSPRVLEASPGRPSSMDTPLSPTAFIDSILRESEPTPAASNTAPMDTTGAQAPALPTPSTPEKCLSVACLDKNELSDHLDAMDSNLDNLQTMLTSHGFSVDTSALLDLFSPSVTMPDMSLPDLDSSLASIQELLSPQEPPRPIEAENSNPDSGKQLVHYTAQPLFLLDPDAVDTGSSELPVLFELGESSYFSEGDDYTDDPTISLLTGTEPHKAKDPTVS

Cytochrome P450 2C19 = Cytochrome P450 2C19 (Homo sapiens, UniProt P33261); test: Cytochrome panel assay with activity outcomes. Panel member name: p450-cyp2c19 Compounds with AC50 equal or less than 10 uM are considered active; type: functional
Cytochrome P450 2C19, sequence (P33261 whole entry): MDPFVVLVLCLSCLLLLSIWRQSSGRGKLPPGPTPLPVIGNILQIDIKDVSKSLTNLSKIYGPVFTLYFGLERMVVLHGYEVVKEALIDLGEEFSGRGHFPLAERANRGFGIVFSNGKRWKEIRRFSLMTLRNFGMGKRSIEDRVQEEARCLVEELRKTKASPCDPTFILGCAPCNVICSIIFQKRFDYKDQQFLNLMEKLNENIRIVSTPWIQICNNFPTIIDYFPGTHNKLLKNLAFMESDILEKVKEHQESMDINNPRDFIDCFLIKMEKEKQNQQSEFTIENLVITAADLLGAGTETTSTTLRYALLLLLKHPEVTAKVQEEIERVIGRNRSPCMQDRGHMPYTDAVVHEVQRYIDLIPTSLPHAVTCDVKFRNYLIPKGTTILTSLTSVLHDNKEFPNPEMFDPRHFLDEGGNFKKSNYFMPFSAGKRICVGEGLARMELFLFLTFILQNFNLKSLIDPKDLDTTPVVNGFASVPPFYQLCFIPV

[4] = biological target: T4, Corticotropin-releasing factor receptor 2/Corticotropin-releasing factor-binding protein (Homo sapiens, UniProt P24387+Q13324); test: activators of CRF receptor 2 with binding protein – uHTS hits, confirmation (AID 602473); type: functional; conditions: read-out: EC50_Mean
T4 sequence (Q13324 whole entry): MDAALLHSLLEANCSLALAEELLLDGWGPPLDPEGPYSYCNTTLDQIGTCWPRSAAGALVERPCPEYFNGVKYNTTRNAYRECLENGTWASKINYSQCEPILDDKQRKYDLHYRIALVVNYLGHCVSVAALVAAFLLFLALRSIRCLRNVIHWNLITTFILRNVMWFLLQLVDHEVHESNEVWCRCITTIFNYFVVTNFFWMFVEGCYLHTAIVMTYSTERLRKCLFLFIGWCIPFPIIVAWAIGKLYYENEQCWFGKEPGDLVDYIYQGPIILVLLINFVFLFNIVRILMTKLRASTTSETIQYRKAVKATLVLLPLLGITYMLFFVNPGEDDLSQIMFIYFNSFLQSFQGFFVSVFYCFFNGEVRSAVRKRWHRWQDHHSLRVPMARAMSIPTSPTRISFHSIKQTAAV
T4 sequence (P24387 whole entry): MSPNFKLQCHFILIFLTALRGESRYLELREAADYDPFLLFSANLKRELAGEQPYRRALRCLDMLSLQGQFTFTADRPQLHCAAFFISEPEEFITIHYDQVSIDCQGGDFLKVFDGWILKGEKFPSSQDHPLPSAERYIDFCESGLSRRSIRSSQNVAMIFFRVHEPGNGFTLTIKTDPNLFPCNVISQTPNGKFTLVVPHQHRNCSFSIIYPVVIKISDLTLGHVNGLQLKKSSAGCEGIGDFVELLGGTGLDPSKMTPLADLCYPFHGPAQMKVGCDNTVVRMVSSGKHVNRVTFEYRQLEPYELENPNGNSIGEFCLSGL

INS1 = test: INS-1E survival protection against cytokine death – cell-based, luminescence, retest, dose response (AID 449756); type: functional; conditions: Rattus norvegicus;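 further: cell death triggered by IL-1 beta plus TNF-alpha plus IFN-gamma mixture; protective hits raise ATP signal compared with cytokine alone wells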
[5] = Luminescence Cell-Based Dose Retest to Confirm Inhibitors of Cancer Stem Cells. [Related pubchem assays (depositor defined):AID2717, AID2721]; type: functional; conditions: Homo sapiens
[6] = system: Streptococcus sp. 'group A'; test: Streptococcus pyogenes SK(-)GAS viability under kanamycin – luminescence, BacTiterGlo, confirmation, counter-screen for streptokinase expression inhibitor project, dose response (AID 1900); type: functional, organism-based
Streptococcus = test: GAS UMAA2166 growth inhibition – luminescence, BacTiterGlo, counter-screen for streptokinase expression inhibitor project, dose response (AID 1915); type: functional, organism-based;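 further: potency for reduction of bacterial viability or growth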
Streptokinase A = biological target: T5, Streptokinase A (Streptococcus pyogenes serotype M1, UniProt P10520); test: viability-normalized secreted streptokinase activity reduction – plasminogen activation absorbance, OD405, dose response (AID 1914); type: functional, Streptococcus pyogenes M1 GAS;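 further: secreted streptokinase activity via plasminogen activation per viability signal from cell pellet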
T5 sequence (P10520 whole entry): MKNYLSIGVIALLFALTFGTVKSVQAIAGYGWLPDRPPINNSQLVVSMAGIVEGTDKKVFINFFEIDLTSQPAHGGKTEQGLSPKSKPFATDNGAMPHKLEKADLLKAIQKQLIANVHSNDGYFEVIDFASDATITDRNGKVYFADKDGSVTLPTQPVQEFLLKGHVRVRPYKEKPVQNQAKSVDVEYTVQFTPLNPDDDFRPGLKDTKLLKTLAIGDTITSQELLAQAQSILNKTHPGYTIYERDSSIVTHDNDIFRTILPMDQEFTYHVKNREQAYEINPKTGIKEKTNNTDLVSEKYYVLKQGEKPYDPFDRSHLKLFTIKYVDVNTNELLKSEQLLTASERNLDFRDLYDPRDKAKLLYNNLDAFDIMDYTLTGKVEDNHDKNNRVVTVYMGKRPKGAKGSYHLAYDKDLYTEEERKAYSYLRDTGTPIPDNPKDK

Cytochrome P450 2C9, sequence (P11712 whole entry): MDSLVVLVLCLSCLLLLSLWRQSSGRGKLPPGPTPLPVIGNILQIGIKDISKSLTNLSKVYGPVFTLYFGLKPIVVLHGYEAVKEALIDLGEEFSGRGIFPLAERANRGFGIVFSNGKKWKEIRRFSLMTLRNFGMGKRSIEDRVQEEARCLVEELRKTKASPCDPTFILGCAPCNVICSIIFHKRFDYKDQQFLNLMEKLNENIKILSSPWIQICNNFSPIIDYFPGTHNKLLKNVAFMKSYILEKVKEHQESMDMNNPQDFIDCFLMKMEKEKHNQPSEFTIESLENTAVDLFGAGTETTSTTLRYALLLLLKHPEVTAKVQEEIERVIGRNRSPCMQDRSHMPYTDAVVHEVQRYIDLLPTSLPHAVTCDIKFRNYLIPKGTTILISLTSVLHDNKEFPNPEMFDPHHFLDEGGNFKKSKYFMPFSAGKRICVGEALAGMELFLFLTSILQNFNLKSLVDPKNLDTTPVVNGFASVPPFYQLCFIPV

For O=C1CCC(c2ccccc2)(c2ccccc2)CC1, the AC50 (Cytochrome P450 2C9) was 6.31 µM (inconclusive).

In the case of O=C(CC1Nc2ccccc2NC1=O)c1ccccc1 (centres undefined), the EC50 [1] is reported as 103 µM (active) and the EC50 [2] is reported as 30.6 µM (active).

In the case of CCOC(=O)c1ccc(NC(=O)Oc2ccccc2)cc1, the EC50 [3] is reported as > 195 µM (not active).

With CC(=O)OCC(=O)[C@@]1(O)[C@H](C)C[C@@H]2[C@H]3CCC4=CC(=O)C=C[C@]4(C)[C@]3(F)[C@@H](O)C[C@@]21C the AC50 (Cytochrome P450 2C9) was 6.31 µM (inconclusive).

In the case of CCC1CC2CC(NC(C)=O)C1C2 (centres undefined), the AC50 (Cytochrome P450 2C19; read-out: AC50) is reported as 20 µM (inconclusive) and the AC50 (Cytochrome P450 2C9) is reported as 7.08 µM (inconclusive).

For CCCCNC(=O)CCC(=O)Nc1ccc2nc(N3CCOCC3)cc(C)c2c1, the AC50 (Cytochrome P450 2C9) was 17.8 µM (inconclusive).

For CC1(c2ccc(Cl)cc2)NC(=O)N(CC(=O)N2CCc3ccccc32)C1=O (centres undefined), the EC50 [4] was 14.1 µM (active).

In the case of Cc1cc(C)nc(NC(=O)COc2cc(Cl)cc(Cl)c2)n1, the EC50 [3] is reported as 71.9 µM (active).

In the case of Cc1cc(/C=C2\SC(=O)N(C)C2=O)c(C)n1-c1cccc(C(=O)O)c1, the EC50 [1] is reported as > 300 µM (not active) and the EC50 [2] is reported as > 300 µM (not active).

In the case of Cc1cccc(N2C(=O)CS/C2=N\NC(=O)c2ccc(Br)cc2)c1C, the EC50 [3] is reported as > 195 µM (not active).

For CCCOc1ccc(NC(N)=O)cc1OCCC, the EC50 [3] was > 195 µM (not active).

For CC(C)(NC(=O)c1cc(Cl)c2ccccc2c1O)C(=O)O, the EC50 [3] was 14.1 µM (active).

In the case of O=C(CSc1nnc(CNc2ccccc2)o1)N1CCCc2ccccc21, the AC50 (Cytochrome P450 2C9) is reported as 15.8 µM (inconclusive).

With COc1ccccc1NCC(=O)N/N=C/c1c(O)ccc2ccccc12 the EC50 [1] was > 150 µM (not active), the AC50 (INS1) was 4.94 µM (active) and the EC50 [2] was > 300 µM (not active).

For CCOC(=O)C1=NOC2C3CC(C12)C1C(=O)N(CCc2ccc(OC)c(OC)c2)C(=O)C31 (centres undefined), the EC50 [3] was > 195 µM (not active).

In the case of O=C(O)CSc1nc(-c2ccccc2)nc2c1oc1ccccc12, the EC50 [3] is reported as > 195 µM (not active).

For NCc1ccccc1.O=C(O)NCc1ccccc1, the AC50 (Cytochrome P450 2C19; read-out: AC50) was 2.51 µM (inconclusive) and the AC50 (Cytochrome P450 2C9) was 3.98 µM (inconclusive).

For CN1C(=O)/C(=C/c2ccc3c(c2)OCO3)N=C1c1ccccc1, the EC50 [1] was 75.1 µM (inconclusive) and the EC50 [2] was > 300 µM (not active).

For CC(NC(=O)CSc1nc(=O)cc(N)n1CCc1ccccc1)c1ccccc1 (centres undefined), the AC50 (Cytochrome P450 2C19; read-out: AC50) was 14.1 µM (inconclusive).

For CCCSc1nsc(NC(=O)Nc2ccc(F)cc2F)n1, the AC50 [5] was 2.95 µM (active), the EC50 [6] was 17.5 µM (active) and the EC50 (Streptococcus) was 34.2 µM (active). The EC50 (Streptokinase A) was 54.8 µM (inconclusive) and the AC50 (INS1) was 6.57 µM (active).

For CCN(CC)C(=O)CSc1nnc(-c2cc3ccccc3cc2O)n1CC, the AC50 (Cytochrome P450 2C19; read-out: AC50) was 15.8 µM (inconclusive).

For Cc1cc(S(=O)(=O)N2CCN=C2c2ccccc2)c(C)cc1Cl, the EC50 [3] was > 195 µM (not active).

For COC(=O)C1=CN(c2ccc(F)c(F)c2)C=C(C(=O)OC)C1c1ccc([N+](=O)[O-])cc1, the EC50 [3] was > 195 µM (not active).

In the case of CCOc1ccc(-n2c(N)c(C(=O)NCc3cccnc3)sc2=S)cc1, the AC50 (Cytochrome P450 2C19; read-out: AC50) is reported as 8.91 µM (inconclusive) and the AC50 (Cytochrome P450 2C9) is reported as 3.55 µM (inconclusive).

In the case of O=C(NC1CCCCC1)c1ccc(COCC(F)(F)F)o1, the AC50 (Cytochrome P450 2C9) is reported as 15.8 µM (inconclusive).

In the case of O=C(/C=C\c1ccc2c(c1)OCO2)c1ccc(F)cc1, the AC50 (Cytochrome P450 2C9) is reported as 1.58 µM (inconclusive).

For CC(=O)Nc1ccccc1Sc1ccc2c3c(cccc13)C(=O)N(c1ccc(C)cc1)C2=O, the EC50 [4] was > 53 µM (inactive).

With CCOC(=O)N1CCN(C(S)=Nc2ccc(C)cc2C)CC1 the EC50 [3] was > 195 µM (not active).

For CC(=N/O)/C(C)=N\NC(=O)c1ccccn1, the EC50 [3] was > 195 µM (not active).

In the case of COC(=O)c1cccc(C(=O)Nc2ccc(C)cc2)n1, the AC50 (Cytochrome P450 2C9) is reported as 6.31 µM (inconclusive).

For O=C(O)COc1ccc(/C=N/NC(=O)c2ccccc2Br)cc1, the EC50 [3] was > 195 µM (not active).

With COc1cc(/N=C/c2c(O)oc3ccccc3c2=O)c(OC)cc1Cl the EC50 [1] was > 300 µM (inconclusive), the EC50 [4] was > 53 µM (inactive) and the EC50 [2] was > 300 µM (inconclusive).

In the case of Cc1cc([N+](=O)[O-])nn1CC(=O)NNC(=S)Nc1ccc([N+](=O)[O-])cc1, the EC50 [1] is reported as 5.47 µM (active) and the EC50 [2] is reported as 28.3 µM (active).

For COc1cccc(-c2nnc3sc(-c4ccc(C)cc4)nn23)c1, the AC50 (Cytochrome P450 2C19; read-out: AC50) was 6.31 µM (inconclusive).

For Cc1ccc(NC(=O)CSc2nccc(=O)[nH]2)c(S(=O)(=O)N2CCOCC2)c1, the EC50 [1] was > 300 µM (not active) and the EC50 [2] was > 300 µM (not active).

For O=C1C2CC=C(Cl)CC2C(=O)N1CCc1ccccc1 (centres undefined), the EC50 [1] was 20.6 µM (active) and the EC50 [2] was 29.4 µM (active).

With CCN1CCN(c2nc(C)c3c(n2)CCCC3=O)CC1 the AC50 (Cytochrome P450 2C19) was “inconclusive”.
